Patent US11299467B2 (Antabio SAS, priority 2017, dated 2022)
Read-outs that look alike come from different tables or passages of the source.

How the values were obtained:
[1] = Plasma stability of test compounds in human plasma; assay type: in vitro ADME; details: after 2 hours; 1 μM, 37° C.
Procedure: [table] Test compound and QC compound were incubated at a final concentration of 1 μM in plasma at 37° C. in shaker water bath with gentle shaking. At predetermined time points, reaction was terminated with 200 μL of acetonitrile containing internal standard and centrifuged at 4000×RCF, 4° C. for 20 minutes. Supernatant was separated and analyzed by LC-MS/MS. The following equation was used to determine the percentage remaining of test/QC compound following the procedure above: […]

VIM-1 = VIM-1 (Pseudomonas aeruginosa, UniProt A0A0F7KYQ8); experiment: In vitro enzyme inhibition assay, purified VIM-1 (imipenem hydrolysis, UV 299 nm); assay type: biochemical
Procedure: (§1) Enzyme inhibition assays were performed using purified MBL enzymes (NDM-1; VIM-1; VIM-2; IMP-1) in 10 mM HEPES buffer pH 7.5 in 96-well microtiter plates. Imipenem (300 μM) was used as substrate and its hydrolysis was followed at UV 299 nm during 10 mn every 30 seconds using a Perkin Elmer Envision UV fluorescence plate reader.
(§2) Mean Ki values from multiple experiments are presented below.
(§3) Studies were undertaken to compare the compounds of the invention with structurally similar compounds (“Comp. x”). Experiments were conducted as described above.

VIM-2 = VIM-2 (Escherichia coli, UniProt Q5U7L7); experiment: In vitro enzyme inhibition assay, purified VIM-2 (imipenem hydrolysis, UV 299 nm); assay type: biochemical
Procedure: as §1, §2, §3

IMP-1 = IMP-1 (Serratia marcescens, UniProt P52699); experiment: In vitro enzyme inhibition assay, purified IMP-1 (imipenem hydrolysis, UV 299 nm); assay type: biochemical
Chain of IMP-1 (P52699 19-246, looked up, species assumed): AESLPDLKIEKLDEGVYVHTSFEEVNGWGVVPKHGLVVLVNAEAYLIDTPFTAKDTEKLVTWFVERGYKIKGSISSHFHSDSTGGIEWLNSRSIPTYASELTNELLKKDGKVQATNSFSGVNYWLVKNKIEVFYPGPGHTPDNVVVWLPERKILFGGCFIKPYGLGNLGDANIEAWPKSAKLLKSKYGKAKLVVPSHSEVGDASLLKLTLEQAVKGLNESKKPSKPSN
Procedure: as §1, §2, §3

NDM-1 = NDM-1 (Klebsiella pneumoniae, UniProt C7C422); experiment: In vitro enzyme inhibition assay, purified NDM-1 (imipenem hydrolysis, UV 299 nm); assay type: biochemical
Chain of NDM-1 (C7C422 29-270, looked up): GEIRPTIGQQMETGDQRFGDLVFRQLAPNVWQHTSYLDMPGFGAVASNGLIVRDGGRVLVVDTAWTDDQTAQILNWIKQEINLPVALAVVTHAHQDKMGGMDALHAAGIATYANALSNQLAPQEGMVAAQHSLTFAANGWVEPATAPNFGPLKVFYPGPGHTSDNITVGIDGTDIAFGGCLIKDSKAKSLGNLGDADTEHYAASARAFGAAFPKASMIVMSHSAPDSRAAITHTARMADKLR
Procedure: as §1, §2, §3

[2] = comparative study bands, read-out: Ki VIM-1 (comparative study)
[3] = mean Ki from multiple experiments, imipenem 300 μM, Cheng-Prusoff from IC50, read-out: Ki VIM-1
[4] = comparative study bands, read-out: Ki VIM-2 (comparative study)
[5] = mean Ki from multiple experiments, imipenem 300 μM, Cheng-Prusoff from IC50, read-out: Ki VIM-2
[6] = comparative study bands, read-out: Ki IMP-1 (comparative study)
[7] = mean Ki from multiple experiments, imipenem 300 μM, Cheng-Prusoff from IC50, read-out: Ki IMP-1
[8] = comparative study bands, read-out: Ki NDM-1 (comparative study)
[9] = mean Ki from multiple experiments, imipenem 300 μM, Cheng-Prusoff from IC50, read-out: Ki NDM-1

Row | SMILES | Stability in human plasma, % remaining [1] | Ki (VIM-1; [2]) | Ki (VIM-1; [3]) | Ki (VIM-2; [4]) | Ki (VIM-2; [5]) | Ki (IMP-1; [6]) | Ki (IMP-1; [7]) | Ki (NDM-1; [8]) | Ki (NDM-1; [9])
1 | COc1cc(S(=O)(=O)Nc2scnc2C(=O)O)ccc1NC(=O)CNC(=N)N [Example 16, 5-[[4-[(2-guanidinoacetyl)amino]-3-methoxy-phenyl]sulfonylamino]thiazole-4-carboxylic acid] | 89% remaining after 2 hours | < 150 nM | < 200 nM | < 20 nM | < 20 nM | 150 to 600 nM | 500 to 1000 nM | 30 to 100 nM | 50 to 200 nM
2 | N=C(N)CC(=O)Nc1c(F)cc(S(=O)(=O)Nc2scnc2C(=O)O)cc1F [Example 13, 5-[[4-[(3-amino-3-imino-propanoyl)amino]-3,5-difluoro-phenyl]sulfonylamino]thiazole-4-carboxylic acid] |  |  | < 200 nM |  | 50 to 150 nM |  | 500 to 1000 nM |  | < 50 nM
3 | N=C(N)NC(=O)Nc1ccc(S(=O)(=O)Nc2scnc2C(=O)O)cc1F [Example 28, 5-[[4-(carbamimidoylcarbamoyl-amino)-3-fluoro-phenyl]sulfonylamino] thiazole-4-carboxylic acid] |  |  | < 200 nM |  | < 20 nM |  | < 500 nM |  | 50 to 200 nM
4 | N=C(N)CC(=O)Nc1ccc(S(=O)(=O)Nc2scnc2C(=O)O)cc1F [Example 4, 5-[[4-[(3-amino-3-imino-propanoyl)amino]-3-fluoro-phenyl]sulfonylamino]thiazole-4-carboxylic acid] |  |  | 200 to 500 nM |  | 20 to 50 nM |  | 1000 to 10000 nM |  | < 50 nM
5 | N=C(N)NCCOC(=O)Nc1ccc(S(=O)(=O)Nc2scnc2C(=O)O)cc1F [Example 27, 5-[[3-fluoro-4-(2-guanidinoethoxycarbonylamino)phenyl]sulfonylamino]thiazole-4-carboxylic acid] |  |  | < 200 nM |  | < 20 nM |  | 500 to 1000 nM |  | < 50 nM
6 | N=C(N)NCC(=O)NCc1ccc(S(=O)(=O)Nc2scnc2C(=O)O)cc1F [Example 45, 5-[[3-fluoro-4-[[(2-guanidinoacetyl)amino]methyl]phenyl]sulfonylamino]thiazole-4-carboxylic acid] |  |  | 500 to 1000 nM |  | 50 to 150 nM |  | 1000 to 10000 nM |  | 200 to 2000 nM
7 | N=C(N)NNCC(=O)Nc1ccc(S(=O)(=O)Nc2scnc2C(=O)O)cc1F [Example 41, 5-[[4-[[2-(2-carbamimidoylhydrazino)acetyl]amino]-3-fluoro-phenyl]sulfonylamino]thiazole-4-carboxylic acid] |  |  | 200 to 500 nM |  | 20 to 50 nM |  | 500 to 1000 nM |  | < 50 nM
8 | N=C(N)NNC(=O)Nc1ccc(S(=O)(=O)Nc2scnc2C(=O)O)cc1F [Example 29, 5-[[3-fluoro-4-(guanidinocarbamoylamino)phenyl]sulfonylamino]thiazole-4-carboxylic acid] |  | 150 to 300 nM | 200 to 500 nM | 20 to 50 nM | 20 to 50 nM | 600 to 5000 nM | 1000 to 10000 nM | < 30 nM | < 50 nM
9 | N#Cc1cc(S(=O)(=O)Nc2scnc2C(=O)O)ccc1NC(=O)CNC(=N)N [Example 5, 5-[[3-cyano-4-[(2-guanidinoacetyl)amino]phenyl]sulfonylamino]thiazole-4-carboxylic acid] |  | 150 to 300 nM | < 200 nM | 20 to 50 nM | 20 to 50 nM | 150 to 600 nM | < 500 nM | 30 to 100 nM | 50 to 200 nM
10 | N=C(N)NCC(=O)Nc1ncc(S(=O)(=O)Nc2scnc2C(=O)O)cc1F [Example 3, 5-[[5-fluoro-6-[(2-guanidinoacetyl)amino]-3-pyridyl]sulfonylamino]thiazole-4-carboxylic acid] |  | 300 to 500 nM | 200 to 500 nM | 20 to 50 nM | 20 to 50 nM | 600 to 5000 nM | 1000 to 10000 nM | 100 to 300 nM | 50 to 200 nM
11 | N=C(N)NCC(=O)Nc1ccc(S(=O)(=O)Nc2scnc2C(=O)O)cc1OC(F)(F)F [Example 18, 5-[[4-[(2-guanidinoacetyl)amino]-3-(trifluoromethoxy)phenyl]sulfonylamino] thiazole-4-carboxylic acid] |  | < 150 nM | < 200 nM | < 20 nM | < 20 nM | < 150 nM | < 500 nM | 30 to 100 nM | 50 to 200 nM
12 | N=C(NCCN)NCC(=O)Nc1ccc(S(=O)(=O)Nc2scnc2C(=O)O)cc1F [Example 39, 5-[[4-[[2-[[N-(2-aminoethyl)carbamimidoyl]amino]acetyl]amino]-3-fluoro-phenyl]sulfonylamino]thiazole-4-carboxylic acid] |  |  | < 200 nM |  | 20 to 50 nM |  | 1000 to 10000 nM |  | 200 to 2000 nM
13 | N=C(N)NCCSC(=O)Nc1ccc(S(=O)(=O)Nc2scnc2C(=O)O)cc1F [Example 31, 5-[[3-fluoro-4-(2-guanidinoethylsulfanyl-carbonylamino)phenyl]sulfonylamino]thiazole-4-carboxylic acid] |  |  | < 200 nM |  | 20 to 50 nM |  | < 500 nM |  | < 50 nM
14 | O=C(CCC1=NCCN1)Nc1ccc(S(=O)(=O)Nc2scnc2C(=O)O)cc1F [Example 36, 5-[[4-[3-(4,5-dihydro-1H-imidazol-2-yl)propanoylamino]-3-fluoro-phenyl]sulfonylamino]thiazole-4-carboxylic acid] |  |  | 200 to 500 nM |  | 50 to 150 nM |  | 1000 to 10000 nM |  | < 50 nM
15 | NCC(=O)Nc1ccc(S(=O)(=O)Nc2scnc2C(=O)O)cc1 [Comp. H, reference compound] |  | 500 to 1000 nM |  | 20 to 50 nM |  | 5000 to 10000 nM |  | 100 to 300 nM | 
16 | N=C(N)CCC(=O)Nc1ccc(S(=O)(=O)Nc2scnc2C(=O)O)cc1F [Example 35, 5-[[4-[(4-amino-4-imino-butanoyl)amino]-3-fluoro-phenyl]sulfonylamino]thiazole-4-carboxylic acid] |  |  | < 200 nM |  | 20 to 50 nM |  | 500 to 1000 nM |  | < 50 nM
17 | O=C(CNC1=NCCN1)Nc1cc(F)c(S(=O)(=O)Nc2scnc2C(=O)O)cc1F [Example 10, 5-[[4-[[2-(4,5-dihydro-1H-imidazol-2-ylamino)acetyl]amino]-2,5-difluoro-phenyl]sulfonylamino]thiazole-4-carboxylic acid] |  |  | < 200 nM |  | < 20 nM |  | 500 to 1000 nM |  | < 50 nM
18 | O=C(CNC1=NCCN1)Nc1ccc(S(=O)(=O)Nc2scnc2C(=O)O)cc1F [Example 32] |  |  | 200 to 500 nM |  | 20 to 50 nM |  | 1000 to 10000 nM |  | 50 to 200 nM
19 | N=C(N)Nc1ccc(S(=O)(=O)Nc2scnc2C(=O)O)cc1 [Example 44, 5-[(4-guanidinophenyl)sulfonylamino]thiazole-4-carboxylic acid] |  |  | 200 to 500 nM |  | 50 to 150 nM |  | 1000 to 10000 nM |  | 200 to 2000 nM
20 | COc1cc(S(=O)(=O)Nc2scnc2C(=O)O)ccc1NC(=O)CN [Comp. E, reference compound] | 29% remaining after 2 hours | 300 to 500 nM |  |  |  | 600 to 5000 nM |  | 100 to 300 nM | 
21 | CNC(=N)CC(=O)Nc1ccc(S(=O)(=O)Nc2scnc2C(=O)O)cc1F [Example 22, 5-[[3-fluoro-4-[[3-imino-3-(methylamino)propanoyl]amino]phenyl]sulfonylamino]thiazole-4-carboxylic acid] |  |  | 200 to 500 nM |  | 50 to 150 nM |  | 1000 to 10000 nM |  | < 50 nM
22 | NCC(=O)Nc1ccc(S(=O)(=O)Nc2scnc2C(=O)O)cc1OC(F)(F)F [Comp. G, reference compound] |  | 300 to 500 nM |  | 20 to 50 nM |  | 150 to 600 nM |  | 30 to 100 nM | 
23 | N=C(N)NCc1ccc(S(=O)(=O)Nc2scnc2C(=O)O)cc1F [Example 46, 5-[[3-fluoro-4-(guanidinomethyl)phenyl]sulfonylamino]thiazole-4-carboxylic acid] |  |  | 200 to 500 nM |  | 50 to 150 nM |  | 1000 to 10000 nM |  | 50 to 200 nM
24 | N=C(N)NCC(=O)Nc1ncc(S(=O)(=O)Nc2scnc2C(=O)O)s1 [Example 23, 5-[[2-[(2-guanidinoacetyl)amino]thiazol-5-yl]sulfonylamino]thiazole-4-carboxylic acid] |  |  | < 200 nM |  | 20 to 50 nM |  | 1000 to 10000 nM |  | < 50 nM
25 | N#Cc1cc(S(=O)(=O)Nc2scnc2C(=O)O)ccc1NC(=O)CN [Comp. D, reference compound] |  | 500 to 1000 nM |  | 20 to 50 nM |  | 150 to 600 nM |  | 30 to 100 nM | 
26 | N#CNC(=N)NCC(=O)Nc1ccc(S(=O)(=O)Nc2scnc2C(=O)O)cc1F [Example 34, 5-[[4-[[2-[(N-cyanocarbamimidoyl)amino]acetyl]amino]-3-fluoro-phenyl]sulfonylamino]thiazole-4-carboxylic acid] |  |  | 500 to 1000 nM |  | 20 to 50 nM |  | < 500 nM |  | < 50 nM
